Read-outs that look alike come from different tables or passages of the source.
Legend:
[1] = cited from earlier work
[2] = system: THLE or HepG2 cells, isolated mitochondria, BSEP; settings: cited from earlier work
PHH = settings: cited from earlier work
[3] = cited from earlier work; remark: listed apart in the source
hLiMTs [4] = settings: cited from earlier work
[5] = system: HepG2 C3A spheroid, BSEP, Glu/Gal in HepG2 cells, bioactivation; settings: cited from earlier work
hLiMTs [6] = test: Combined HCI (HCS) and cellular ATP 3D assay in hLiMTs; settings: for AC50 / minimal effective concentration: Homo sapiens
HepaRG spheroids = test: Combined HCI (HCS) and cellular ATP 3D assay in HepaRG spheroids; settings: for AC50 / minimal effective concentration: Homo sapiens
[7] = read-out: Human plasma Cmax; total plasma Cmax.tot, median of 9 literature references; cited from earlier work
[8] = Plasma free fraction (fu) and unbound Cmax (Cmax,u); format: in vitro ADME, human; settings: unbound plasma Cmax
[9] = system: primary human hepatocytes, NIH3T3 fibroblasts, BSEP, CYP3A4; settings: cited from earlier work
[10] = plasma free fraction; cited from earlier work
[11] = Modeled in vitro assays (cytotoxicity, mitochondrial dysfunction, BSEP), ref Aleo et al. 2019
[12] = In vitro Assay, ref Proctor 2017
[13] = Microtissue model structural based (HCI), combined HCS and ATP, MEC < 25 × Cmax.tot cut-off
[14] = In vitro Assay, ref Schadt 2015

- hLiMTs <25x Avg Cmax ATP (hLiMTs [6]; hLiMTs, ATP endpoint, cut-off <25x Avg Cmax): -ve
- hLiMTs <100x Avg Cmaxu ATP (hLiMTs [6]; hLiMTs, ATP endpoint, cut-off <100x Avg Cmaxu): -ve
- hLiMTs <25x Avg Cmax HCS (hLiMTs [6]; hLiMTs, HCS endpoints, cut-off <25x Avg Cmax): +ve
- hLiMTs <100x Avg Cmaxu HCS (hLiMTs [6]; hLiMTs, HCS endpoints, cut-off <100x Avg Cmaxu): -ve
- hLiMTs <25x Avg Cmax All (hLiMTs [6]; hLiMTs, all endpoints (ATP and HCS), cut-off <25x Avg Cmax): +ve
- hLiMTs Cmax max All (hLiMTs [6]; hLiMTs, all endpoints, Cmax max used): +ve
- hLiMTs Cmax min All (hLiMTs [6]; hLiMTs, all endpoints, Cmax min used): -ve
- hLiMTs <10 uM All (hLiMTs [6]; hLiMTs, all endpoints, cut-off <10 uM): -ve
- hLiMTs <100x Avg Cmaxu All (hLiMTs [6]; hLiMTs, all endpoints, cut-off <100x Avg Cmaxu): -ve
- HepaRG <25x Avg Cmax ATP (HepaRG spheroids; HepaRG, ATP endpoint, cut-off <25x Avg Cmax): +ve
- HepaRG <100x Avg Cmaxu ATP (HepaRG spheroids; HepaRG, ATP endpoint, cut-off <100x Avg Cmaxu): -ve
- HepaRG <25x Avg Cmax HCS (HepaRG spheroids; HepaRG, HCS endpoints, cut-off <25x Avg Cmax): +ve
- HepaRG <100x Avg Cmaxu HCS (HepaRG spheroids; HepaRG, HCS endpoints, cut-off <100x Avg Cmaxu): -ve
- HepaRG <25x Avg Cmax All (HepaRG spheroids; HepaRG, all endpoints (ATP and HCS), cut-off <25x Avg Cmax): +ve
- HepaRG Cmax max All (HepaRG spheroids; HepaRG, all endpoints, Cmax max used): +ve
- HepaRG Cmax min All (HepaRG spheroids; HepaRG, all endpoints, Cmax min used): +ve
- HepaRG <10 uM All (HepaRG spheroids; HepaRG, all endpoints, cut-off <10 uM): -ve
- HepaRG <100x Avg Cmaxu All (HepaRG spheroids; HepaRG, all endpoints, cut-off <100x Avg Cmaxu): -ve
- Human plasma Cmax,u [8]: 0.072 µM
Compound: CCN(CC)C(=O)/C(C#N)=C/c1cc(O)c(O)c([N+](=O)[O-])c1 [entacapone]
- DILI severity category (Chen et al. [2016]) ([1]; LTKB DILIrank category, ref Chen et al. 2016): Less
- DILI severity category (Chen 2016) ([1]; human DILI classification, LTKB DILIrank, ref Chen et al. 2016): Less
- DILI severity category ([1]; human DILI severity, ref Chen et al.): Less
- DILI +VE (5-8), DILI -VE (-4) ([1]; ref Chen 2016): +VE
- DILI severity category ([1]; ref Chen 2016): vLess-DILI-Concern
- Partition Hybrid HRM Score ([2]; In vitro Assay, ref Aleo 2019): +VE
- Ro2 Hybrid HRM Score ([2]; In vitro Assay, ref Aleo 2019): +VE
- Partition Hybrid HRM Score ≥4, Aleo (2019) [2, 11]: +VE (Partition Hybrid HRM Score ≥4)
- Partition Hybrid HRM Score ≥8, Aleo (2019) [2, 11]: +VE (Partition Hybrid HRM Score ≥8)
- Rule of Two hybrid HRM Score ≥3, Aleo (2019) [2, 11]: +VE (Rule of Two hybrid HRM Score ≥3)
- Rule of Two hybrid HRM Score ≥8, Aleo (2019) [2, 11]: -VE
- PHH/100xCmax, Proctor (2017) (PHH; 2D PHH, ATP, IC50 < 100 × Cmax.tot, ref Proctor et al. 2017): +VE (IC50 < 100 × Cmax.tot)
- PHH/100uM, Proctor (2017) (PHH; 2D PHH, ATP, IC50 threshold 100 µM, ref Proctor et al. 2017): -VE
- PHH ATP <100uM (PHH; [12]): +VE (IC50 threshold of 100 µM)
- Assigned DILI category ([3]; Chen et al. 2016 or literature alignment, ref Chen et al. 2016): 2
- In vivo DILI ([3]; ref Aleo 2019): +VE
- In vivo DILI ([3]; ref Proctor 2017): -VE
- In vivo DILI ([3]; ref Schadt 2015): -VE
- In vivo DILI ([3]; ref Williams 2019): -VE
- hLiMTs ATP <100uM (hLiMTs [4]; [12]): -VE
- hLiMTs/100xCmax, Proctor (2017) (hLiMTs [4]; hLiMTs, ATP, IC50 < 100 × Cmax.tot, ref Proctor et al. 2017): +VE (IC50 < 100 × Cmax.tot)
- hLiMTs/100uM, Proctor (2017) (hLiMTs [4]; hLiMTs, ATP, IC50 threshold 100 µM, ref Proctor et al. 2017): -VE
- Bayesian Machine Learning DILI prediction, Williams (2019) ([5]; Bayesian modeling, ref Williams et al. 2019): -VE
- Bayesian Machine Learning ([5]; In vitro Assay, ref Williams 2019): -VE
- AC50 (hLiMTs [6]; read-out: ATP endpoint AC50): 150 µM
- minimal effective concentration (hLiMTs [6]; read-out: ATP endpoint MEC): 125 µM
- AC50 (hLiMTs [6]; read-out: HCS endpoint AC50): 139 µM
- minimal effective concentration (hLiMTs [6]; read-out: HCS endpoint MEC): 88.8 µM
- DILI prediction hLiMTs (HCS-MEC) (hLiMTs [6]; [13]): +VE (MEC < 25 × Cmax.tot cut-off)
- AC50 (HepaRG spheroids; HepaRG, read-out: ATP endpoint AC50): 115 µM
- minimal effective concentration (HepaRG spheroids; HepaRG, read-out: ATP endpoint MEC): 45.5 µM
- AC50 (HepaRG spheroids; HepaRG, read-out: HCS endpoint AC50): 129 µM
- minimal effective concentration (HepaRG spheroids; HepaRG, read-out: HCS endpoint MEC): 45.4 µM
- DILI prediction HepaRG spheroids (HCS-MEC) (HepaRG spheroids; [13]): +VE (MEC < 25 × Cmax.tot cut-off)
- Cmax [7]: 3.59 µM
- DILI in vitro assay prediction, Schadt (2015) ([9]; BSEP & Metabolism based, ref Schadt et al. 2015): -VE
- Cellular toxicity (3T3 cells) [9, 14]: -VE
- Combined Assay [9, 14]: -VE
- GSH adduct HML [9, 14]: -VE
- Hepatocyte cellular toxicity [9, 14]: -VE
- MitoTox 3T3 [9, 14]: -VE
- TDI CYP3A4 [9, 14]: -VE
- hBSEP inhibition [9, 14]: -VE
- fu [10]: 0.020

Source: PMC7395068, “The evolution of strategies to minimise the risk of human drug-induced liver injury (DILI) in drug discovery and development” (Archives of Toxicology, 2020)
